Measurements reported in US20170050957A1, “4-AMINO-6-(HETEROCYCLIC)PICOLINATES AND 6-AMINO-2-(HETEROCYCLIC)PYRIMIDINE-4-CARBOXYLATES AND THEIR USE AS HERBICIDES” (Dow AgroSciences LLC, priority 2013, published 2017).
Read-outs that look alike come from different tables or passages of the source.

Tests used:
[1] = system: Key Broadleaf Weed and Crop Species; test: Post-emergent Test II herbicidal activity (Table 15); type: in vivo; conditions: post-emergence, 336 h, 14 d; for pest or weed control at 35 g/ha: 35 g ai/ha; for pest or weed control at 70 g/ha: 70 g ai/ha; for pest or weed control at 140 g/ha: 140 g ai/ha
Summary of the method: (§1)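 Plants at first-second true leaf stage, grown 7-21 d in greenhouse (~15 h photoperiod, 23-29 °C day), were track-sprayed at 187 L/ha with compound in acetone/DMSO/water/isopropanol/crop oil/Triton X-155 at a high rate plus 1/2× to 1/16× dilutions. Injury scored visually after 14 d versus untreated plants, 0 (none) to 100% (complete kill).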

[2] = system: Key Grass and Sedge Weeds as well as Grass Crops; test: Post-emergent Test II herbicidal activity (Table 16); type: in vivo; conditions: post-emergence, 336 h, 14 days after application; for pest or weed control at 35 g/ha: 35 g ai/ha; for pest or weed control at 70 g/ha: 70 g ai/ha; for pest or weed control at 140 g/ha: 140 g ai/ha
Summary of the method: as §1

[3] = Abutilon theophrasti, velvetleaf (Abutilon theophrasti), read-out: Visual Growth Reduction (%) 14 Days After Application, ABUTH
[4] = Amaranthus retroflexus, redroot pigweed (Amaranthus retroflexus), read-out: Visual Growth Reduction (%) 14 Days After Application, AMARE
[5] = Brassica napus, oilseed rape, canola (Brassica napus), read-out: Visual Growth Reduction (%) 14 Days After Application, BRSNN
[6] = Chenopodium album, lambsquarters (Chenopodium album), read-out: Visual Growth Reduction (%) 14 Days After Application, CHEAL
[7] = Euphorbia heterophylla, wild poinsettia (Euphorbia heterophylla), read-out: Visual Growth Reduction (%) 14 Days After Application, EPHHL
[8] = Helianthus annuus, sunflower (Helianthus annuus), read-out: Visual Growth Reduction (%) 14 Days After Application, HELAN
[9] = Cyperus esculentus, yellow nutsedge (Cyperus esculentus), read-out: Visual Growth Reduction (%) 14 Days After Application CYPES
[10] = Echinochloa crus-galli, barnyardgrass (Echinochloa crus-galli), read-out: Visual Growth Reduction (%) 14 Days After Application ECHCG
[11] = Oryza sativa, rice (Oryza sativa), read-out: Visual Growth Reduction (%) 14 Days After Application ORYSA
[12] = Setaria faberi, giant foxtail (Setaria faberi), read-out: Visual Growth Reduction (%) 14 Days After Application SETFA
[13] = Triticum aestivum, wheat, spring (Triticum aestivum), read-out: Visual Growth Reduction (%) 14 Days After Application TRZAS
[14] = Zea mays, maize, corn (Zea mays), read-out: Visual Growth Reduction (%) 14 Days After Application ZEAMX

Structure (SMILES)	pest or weed control at 35 g/ha [1, 3] [%]	pest or weed control at 70 g/ha [1, 3] [%]	pest or weed control at 140 g/ha [1, 3] [%]	pest or weed control at 35 g/ha [1, 4] [%]	pest or weed control at 70 g/ha [1, 4] [%]	pest or weed control at 140 g/ha [1, 4] [%]	pest or weed control at 35 g/ha [1, 5] [%]	pest or weed control at 70 g/ha [1, 5] [%]	pest or weed control at 140 g/ha [1, 5] [%]	pest or weed control at 35 g/ha [1, 6] [%]	pest or weed control at 70 g/ha [1, 6] [%]	pest or weed control at 140 g/ha [1, 6] [%]	pest or weed control at 35 g/ha [1, 7] [%]	pest or weed control at 70 g/ha [1, 7] [%]	pest or weed control at 140 g/ha [1, 7] [%]	pest or weed control at 35 g/ha [1, 8] [%]	pest or weed control at 70 g/ha [1, 8] [%]	pest or weed control at 140 g/ha [1, 8] [%]	pest or weed control at 35 g/ha [2, 9] [%]	pest or weed control at 70 g/ha [2, 9] [%]	other results
Nc1c(F)c(-c2ccc3scnc3c2)nc(C(=O)O)c1Cl [Compound 6.02]	85 to 94	85 to 94	85 to 94	95 to 100	95 to 100	95 to 100	95 to 100	95 to 100	95 to 100	95 to 100	95 to 100	95 to 100	95 to 100	95 to 100	95 to 100	95 to 100	95 to 100	95 to 100	45 to 59	45 to 59	pest or weed control at 140 g/ha [2, 9]: 45 to 59%; pest or weed control at 35 g/ha [2, 10]: 75 to 84%; pest or weed control at 70 g/ha [2, 10]: 75 to 84%; pest or weed control at 140 g/ha [2, 10]: 85 to 94%; pest or weed control at 35 g/ha [2, 11]: 0 to 29%; pest or weed control at 70 g/ha [2, 11]: 0 to 29%; pest or weed control at 140 g/ha [2, 11]: 0 to 29%; pest or weed control at 35 g/ha [2, 12]: 0 to 29%; pest or weed control at 70 g/ha [2, 12]: 45 to 59%; pest or weed control at 140 g/ha [2, 12]: 60 to 74%; pest or weed control at 35 g/ha [2, 13]: 0 to 29%; pest or weed control at 70 g/ha [2, 13]: 0 to 29%; pest or weed control at 140 g/ha [2, 13]: 30 to 44%; pest or weed control at 35 g/ha [2, 14]: 0 to 29%; pest or weed control at 70 g/ha [2, 14]: 0 to 29%; pest or weed control at 140 g/ha [2, 14]: 0 to 29%; melting point: 186 to 187 °C
COC(=O)c1nc(-c2cccc3c2cnn3C)c(F)c(N)c1Cl [Compound 4.10]	0 to 29	0 to 29	0 to 29	0 to 29	95 to 100	95 to 100	0 to 29	0 to 29	0 to 29	0 to 29	0 to 29	0 to 29	0 to 29	0 to 29	0 to 29	0 to 29	0 to 29	45 to 59	0 to 29	0 to 29	pest or weed control at 140 g/ha [2, 9]: 0 to 29%; pest or weed control at 35 g/ha [2, 10]: 0 to 29%; pest or weed control at 70 g/ha [2, 10]: 0 to 29%; pest or weed control at 140 g/ha [2, 10]: 0 to 29%; pest or weed control at 35 g/ha [2, 11]: 0 to 29%; pest or weed control at 70 g/ha [2, 11]: 0 to 29%; pest or weed control at 140 g/ha [2, 11]: 0 to 29%; pest or weed control at 35 g/ha [2, 12]: 0 to 29%; pest or weed control at 70 g/ha [2, 12]: 0 to 29%; pest or weed control at 140 g/ha [2, 12]: 0 to 29%; pest or weed control at 35 g/ha [2, 13]: 0 to 29%; pest or weed control at 70 g/ha [2, 13]: 0 to 29%; pest or weed control at 140 g/ha [2, 13]: 0 to 29%; pest or weed control at 35 g/ha [2, 14]: 0 to 29%; pest or weed control at 70 g/ha [2, 14]: 0 to 29%; pest or weed control at 140 g/ha [2, 14]: 0 to 29%; melting point: 170 to 175 °C
